Measurements as given in patent publication US11179348B2, “Combination comprising pterostilbene for the treatment of cancer” (FUNDACIÓN UNIVERSIDAD CATÓLICA DE VALENCIA SAN VICENTE …, priority 2015, dated 2021).
Like-named read-outs stand apart in the source and are kept apart here. Marks after values point to notes of the source that are not given here.

Experiments:
[1] = Pter and metabolite levels in plasma, tumor, brain and pituitary after i.v. administration (LC-MS/MS); format: in vivo, mice; conditions: for highest concentration in plasma / highest concentration in tumors: 5 min after i.v. 30 mg Pter/kg
Description: Determination of Pter and its Metabolites by High-Pressure Liquid Chromatography and Mass Spectrometry (LC-MS/MS).
LC-MS/MS was carried out, as previously described (Ferrer, P. et al. Neoplasia 7, 37-47 (2005); Azzolini, M. et al. Mol Nutr Food Res 58, 2122-2132 (2014)) in detail, using a TSQ Vantage™ Triple Quadrupole Mass Spectrometer (Thermo Scientific, Waltham, Mass.) equipped with a Shimadzu LC-10ADvp. pump and a SLC-10Avp. controller system with a SIL-10ADvp. autoinjector.

NORA = experiment: Plasma NORA levels (ELISA) in melanoma-bearing mice; format: in vivo; conditions: melanoma-bearing mice treated vs not treated with Pter
Text: Measurement of ACTH, Corticosterone, and NORA Levels.
Plasma levels of ACTH (Calbiotech, Inc., Spring Valley, Calif.), corticosterone (Kamiyama Biomedical Co., Seattle, Wash.), and NORA (IBL, Hamburg, Germany) were quantified by ELISA according to the instructions of the suppliers.

[2] = test system: Caco-2 colorectal carcinoma; experiment: In vivo growth of Caco-2 colorectal cancer xenografts; parameters: species or system human; conditions: Caco-2, day 28
[3] = test system: SK-OV-3 epithelial ovarian carcinoma; experiment: In vivo growth of SK-OV-3 ovarian cancer xenografts; parameters: species or system human; conditions: SK-OV-3, day 49
[4] = test system: MDA-MB-231 cells isolated from tumor-bearing mice; experiment: Chemosensitization of cultured MDA-MB-231 cells isolated from xenografts; format: cell-based, human; conditions: 72 h-cultured, PL 0.1 μM, Chemo 0.25 μM PAC.PBP, Pter = in vivo pretreatment
Description: FIGS. 18-25. Effect of piperlongumine and I-BET762, as GSH depleting and chemosensitizing agents, in in vitro growing human melanoma, pancreatic, breast, lung, liver, prostate, ovarian, and colorectal cancer cells. Cancer cells, isolated from Pter-treated tumor-bearing mice, were cultured as indicated under Methods. Chemotherapy (0.25 μM PAC.PBP in A2058 melanoma and MDA-MB-231 breast carcinoma cells; 0.125 μM PAC.PBP and 25 μM GTB in AsPC-1 pancreatic cancer cells; 1 μM VRB and 15 μM cisPt in A459 lung carcinoma cells; 0.15 μM DXR in HepG2 hepatocellular carcinoma cells; 15 nM DCT in PC-3 prostate carcinoma cells; 0.15 μM PAC.PBP and 25 μM CarboPt in SK-OV-3 ovarian carcinoma cells; 3 μM 5-FU, 1 μM FA and 0.6 μM IRI in HT-29 colorectal carcinoma cells) was added to the cultured flasks 24 h after seeding. […]
Human A2058, MeWo and MelJuso melanoma cells, and mouse AtT-20 pituitary corticotroph tumor cells were from the American Type Culture Collection (ATCC). […] Cell numbers were determined using a Coulter Counter (Coulter Electronic Inc., Miami, Fla.). […] Cellular viability was assessed as previously reported (Mena, S. et al. Clin Cancer Res 13, 2658-2666 (2007)), by measuring trypan blue exclusion and leakage of lactate dehydrogenase activity. […]

COc1cc(/C=C/c2ccc(O)cc2)cc(OC)c1 [Pter, trans-3,5-dimethoxy-4′-hydroxystilbene]
approx. mean level in the hypophysis ([1]; 10-30 min after i.v. 30 mg/kg): ~15 µM
level in whole brain ([1]; 60 min after i.v. 30 mg/kg): approx. 1 nmol/g
level in whole brain ([1]; 120 min after i.v. 30 mg/kg): non-detectable levels
highest concentration in plasma ([1]; A2058-bearing mice): 112 ± 17 µM
highest concentration in tumors ([1]; A2058 tumors): 28 ± 7 µM
highest concentration in tumors ([1]; MeWo tumors): 33 ± 7 µM
highest concentration in plasma ([1]; MeWo-bearing mice): 116 ± 23 µM
highest concentration in tumors ([1]; MelJuso tumors): 25 ± 7 µM
highest concentration in plasma ([1]; MelJuso-bearing mice): 98 ± 13 µM
levels in plasma after the last time point ([1]; after 480 min): undetectable
levels in the hypophysis compared with the whole brain ([1]; after i.v. 30 mg/kg): significantly higher
lowest concentration in plasma ([1]; at 240-480 min after i.v. 30 mg Pter/kg): approx. 1 μM
half-life ([1]; female, nu/nu nude, mouse, melanoma tumor, iv, 30 mg/kg, melanoma tumors, 30 mg Pter/kg i.v., read-out: half-life in the melanoma tumors): 36 to 40 min
half-life ([1]; female, nu/nu nude, mouse, plasma, iv, 30 mg/kg, B16-F1-bearing mice, Pter 30 mg/kg i.v., read-out: half-life in circulating plasma): 61.2 min
half-life ([1]; female, nu/nu nude, mouse, plasma, iv, 30 mg/kg, melanoma-bearing mice, 30 mg Pter/kg i.v., read-out: half-life in circulating plasma): 70 to 73 min
half-life ([1]; female, nu/nu nude, mouse, tumor (B16-F1), iv, 30 mg/kg, B16-F1 tumors, Pter 30 mg/kg i.v., read-out: half-life in the tumors): 29.3 min
concentration at 180 min ([1]; female, nu/nu nude, mouse, tumor, iv, 30 mg/kg, at 180 min after i.v. 30 mg Pter/kg, read-out: lowest concentration in tumors): ~1000 nM
approximate mean concentration within the tumor ([1]; first hour after i.v. 30 mg Pter/kg): ~15 µM
main Pter-derived metabolite generated in vivo (plasma) ([1]; i.v. 30 mg Pter/kg): pterostilbene-4′-sulfate (Pter-S)
NORA levels in plasma (NORA): not significantly different
Tumor vol. [2]: 795 ± 285 mm^3
Tumor vol. [3]: 214 ± 83* mm^3
Viable cells [4]: 966 ± 177 ×10^6
